Source: patent publication US7307071B2, “RAF-MEK-ERK pathway inhibitors to treat cancer” (Onyx Pharmaceuticals, Inc, priority 2001, dated 2007)

Tests used:
[1] = test system: phospho-ERK in Ba/F3 cells expressing Bcr-Abl imatinib resistant mutants E255K and T315I; test: ERK phosphorylation, Western blot with phospho-ERK antibody; assay type: cell-based, mouse; details: FIG. 5
Method: (§1) The experiment was conducted as follows. On day 1, 2×10^6 cells were plated in a 6 well plate in medium containing 10% serum, and on day 2 the cells were treated with the relevant compound dissolved in DMSO. The final DMSO concentration was 0.2%. Next, the cells were spun down, and washed once with 2 ml of ice-cold phosphate buffered saline, and then lysed with […] buffer. Next, 50 ul of cell lysates was electrophoresed in 10% Tris-Glycine gels, followed by treatment with a 1° antibody which was a phospho-ERK polyclonal rabbit antibody used at 1:1000 dilution. It was obtained from Cell Signaling. The 1° was followed by a 2° antibody which was goat anti-rabbit horse radish peroxidase antibody, and it was used at a dilution of 1:1000. Lastly, Westerns were developed with an ECL kit obtained from Amersham.

[2] = test system: phospho-ERK in Ba/F3 cells expressing wild type Bcr-Abl; test: as above; assay type: cell-based, mouse; details: FIG. 5
Method: as §1

[3] = test system: all four cell lines: Ba/F3, P210 WT, P210 T315I, P210 E255K; test: Cell proliferation (cell viability) by trypan blue dye exclusion; assay type: cell-based, mouse; details: FIG. 4, 3 experiments, read-out: IC50 for inhibition of cell proliferation
Method: Briefly, cell culture methods were as follows. […] Cell proliferation assays were performed as follows.

[4] = test system: chronic myelogenous leukemia; details: CML patients, remissions achieved during blast phase; cited from earlier work

| SMILES | effect on phospho-ERK levels [1] | effect on phospho-ERK levels [2] | IC50 [3] | time to relapse after remission [4] |
| --- | --- | --- | --- | --- |
| CNC(=O)c1cc(Oc2ccc(NC(=O)Nc3ccc(Cl)c(C(F)(F)F)c3)cc2)ccn1 [BAY 43-9006] | decrease in phospho-ERK levels | decrease in phospho-ERK levels | 4 to 8 µM |  |
| Cc1ccc(NC(=O)c2ccc(CN3CCN(C)CC3)cc2)cc1Nc1nccc(-c2cccnc2)n1 [imatinib] |  |  |  | 2-6 months |
